According to ChEMBL document CHEMBL1154526, “Novel non-active site inhibitor of Cryptosporidium hominis TS-DHFR identified by a virtual screen” (Bioorg Med Chem Lett, 2009):
Where a chain is given by its changes, count along the chain named.

Tests used:
[1] = Inhibition of Cryptosporidium hominis TS-DHFR by spectroscopic assay
Dihydrofolate reductase = target: T1, Dihydrofolate reductase (Homo sapiens, UniProt P00374); assay: Inhibition of human DHFR
T1 sequence (P00374 whole entry): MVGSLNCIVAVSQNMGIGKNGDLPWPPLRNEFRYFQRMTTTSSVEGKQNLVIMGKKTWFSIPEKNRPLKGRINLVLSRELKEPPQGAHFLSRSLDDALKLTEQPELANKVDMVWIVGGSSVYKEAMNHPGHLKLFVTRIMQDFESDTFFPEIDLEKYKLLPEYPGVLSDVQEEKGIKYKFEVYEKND

Thymidylate synthase = Thymidylate synthase (Homo sapiens, UniProt P04818); assay: Inhibition of human thymidylate synthase
Sequence of Thymidylate synthase (P04818 whole entry): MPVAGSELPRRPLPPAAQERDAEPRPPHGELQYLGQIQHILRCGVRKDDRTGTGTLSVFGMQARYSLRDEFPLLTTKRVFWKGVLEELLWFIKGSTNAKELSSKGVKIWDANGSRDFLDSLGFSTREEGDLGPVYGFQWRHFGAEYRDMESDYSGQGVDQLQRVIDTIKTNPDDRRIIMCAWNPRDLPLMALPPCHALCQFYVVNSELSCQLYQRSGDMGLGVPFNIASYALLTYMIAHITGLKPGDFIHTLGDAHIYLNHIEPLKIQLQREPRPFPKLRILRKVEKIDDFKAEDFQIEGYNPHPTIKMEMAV

[2] = Binding affinity to Cryptosporidium hominis TS-DHFR by burst amplitude assay
[3] = tested on: T2, Dihydrofolate reductase (Cryptosporidium hominis), Q27552 [R190G]; assay: Inhibition of Cryptosporidium hominis DHFR R190G mutant; set-up: scale not given: the % may be the effect or the level left
T2 sequence (whole entry): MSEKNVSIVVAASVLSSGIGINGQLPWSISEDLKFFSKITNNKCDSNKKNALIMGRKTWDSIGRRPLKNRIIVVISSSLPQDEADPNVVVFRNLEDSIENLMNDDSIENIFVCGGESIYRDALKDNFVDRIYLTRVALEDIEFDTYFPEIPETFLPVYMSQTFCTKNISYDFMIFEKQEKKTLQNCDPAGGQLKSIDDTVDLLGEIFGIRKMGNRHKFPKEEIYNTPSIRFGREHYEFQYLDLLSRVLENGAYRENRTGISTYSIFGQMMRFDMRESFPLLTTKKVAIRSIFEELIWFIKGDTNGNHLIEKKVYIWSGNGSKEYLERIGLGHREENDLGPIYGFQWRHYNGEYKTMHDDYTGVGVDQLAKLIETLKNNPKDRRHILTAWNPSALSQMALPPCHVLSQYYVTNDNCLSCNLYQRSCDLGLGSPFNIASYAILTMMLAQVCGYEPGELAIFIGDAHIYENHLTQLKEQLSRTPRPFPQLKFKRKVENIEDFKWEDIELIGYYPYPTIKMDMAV

[4] = Inhibition of Cryptosporidium hominis 80 to 250 nM TS-DHFR by spectroscopic assay
Cryptosporidium hominis [5] = details: 200 uM
Description: Activity at Cryptosporidium hominis DHFR at 200 uM using NADPH substrate by steady state competition assay

[6] = tested on: T3, Dihydrofolate reductase (Cryptosporidium hominis), Q27552 [D201A]; assay: Inhibition of Cryptosporidium hominis DHFR D201A mutant; set-up: scale not given: the % may be the effect or the level left
T3 sequence (whole entry): T2 sequence (whole entry) with G190R, D201A

Cryptosporidium hominis [7] = details: 200 uM; remark: listed apart in the source
Description: Activity at Cryptosporidium hominis DHFR at 200 uM using dihydrofolate substrate by steady state competition assay

[8] = target: T4, Bifunctional dihydrofolate reductase-thymidylate synthase (Toxoplasma gondii, UniProt Q07422); assay: Inhibition of Toxoplasma gondii TS-DHFR
T4 sequence (Q07422 whole entry): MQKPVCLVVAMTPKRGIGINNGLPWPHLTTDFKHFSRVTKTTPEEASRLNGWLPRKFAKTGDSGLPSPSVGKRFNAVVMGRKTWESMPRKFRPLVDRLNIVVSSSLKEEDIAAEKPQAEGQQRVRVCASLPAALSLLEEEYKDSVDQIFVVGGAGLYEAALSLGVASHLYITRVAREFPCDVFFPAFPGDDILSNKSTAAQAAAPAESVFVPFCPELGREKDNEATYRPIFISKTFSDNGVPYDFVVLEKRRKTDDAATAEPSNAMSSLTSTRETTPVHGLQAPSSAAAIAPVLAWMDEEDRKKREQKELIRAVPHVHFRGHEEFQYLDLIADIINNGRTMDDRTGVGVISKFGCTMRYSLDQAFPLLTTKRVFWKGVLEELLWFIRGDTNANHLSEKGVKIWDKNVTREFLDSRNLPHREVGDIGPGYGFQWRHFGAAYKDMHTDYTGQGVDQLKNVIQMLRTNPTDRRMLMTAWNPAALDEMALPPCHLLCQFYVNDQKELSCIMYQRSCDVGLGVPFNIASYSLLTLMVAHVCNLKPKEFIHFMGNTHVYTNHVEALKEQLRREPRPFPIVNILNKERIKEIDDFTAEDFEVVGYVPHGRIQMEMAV

Question: For `CC(=O)N[C@@H]1[C@@H](O)[C@H](O[C@@H]2O[C@H](CO)[C@@H](O)[C@H](O)[C@H]2NC(C)=O)[C@@H](CO)O[C@H]1O` [CHITODEXTRIN], which IC50 [1] is on record?
Answer: > 500 µM

Question: For `C[C@H]1O[C@@H](O[C@H]2[C@@H](O)C[C@H](O[C@H]3[C@@H](O)C[C@H](O[C@H]4CC[C@@]5(C)[C@H](CC[C@@H]6[C@@H]5C[C@@H](O)[C@]5(C)[C@@H](C7=CC(=O)OC7)CC[C@]65O)C4)O[C@@H]3C)O[C@@H]2C)C[C@H](O)[C@@H]1O` [DIGOXIN], which IC50 [1] is on record?
Answer: > 500 µM

Question: Which IC50 [1] does the source give for `CC(=O)N1CCN(c2ccc(OCC3COC(Cn4ccnc4)(c4ccc(Cl)cc4Cl)O3)cc2)CC1` (configuration not stated) [KETOCONAZOLE] here?
Answer: > 500 µM

Question: Which IC50 (Dihydrofolate reductase) does the source give for `Cc1cc2nc3c(=O)[nH]c(=O)nc-3n(C[C@H](O)[C@H](O)[C@H](O)COP(=O)(O)O)c2cc1C` [RIBOFLAVIN 5'-PHOSPHATE] here?
Answer: 325 µM

Question: And the IC50 (Thymidylate synthase)?
Answer: > 500 µM

Question: What about the Kd [2] of the same compound?
Answer: 48 µM

Question: And the Activity [3]?
Answer: 20%

Question: And the IC50 [4]?
Answer: 55 µM

Question: What about the IC50 [1] of the same compound?
Answer: 55 µM

Question: And the Km (Cryptosporidium hominis [5])?
Answer: 3 µM

Question: What about the Vmax (Cryptosporidium hominis [5]) of the same compound?
Answer: 1.77 µmol/min

Question: And the Activity [6]?
Answer: 10%

Question: What about the Km (Cryptosporidium hominis [7]) of the same compound?
Answer: 7.2 µM

Question: And the Vmax (Cryptosporidium hominis [7])?
Answer: 1.8 µmol/min

Question: What about the IC50 [8] of the same compound?
Answer: > 500 µM

Question: Which IC50 [1] does the source give for `COc1cccc2c1C(=O)C1=C(C2=O)C(O)C2=C(C1O)[C@@H](C[C@@H]1C[C@H](N)[C@@H](O)[C@H](C)O1)C[C@@](O)(/C(C)=N/NC(=O)c1ccccc1)C2` (some centres not stated) [RUBIDAZONE] here?
Answer: > 500 µM

Question: For `COC1=C(N)C(=O)c2nc(-c3nc(C(=O)O)c(C)c(-c4ccc(OC)c(OC)c4O)c3N)ccc2C1=O` [STREPTONIGRIN], which IC50 [1] is on record?
Answer: 80 µM
